From publication PMC5529658, “Antiproliferative and Antibacterial Activities of Cirsium scabrum from Tunisia” (Evidence-based Complementary and Alternative Medicine : eCAM, 2017)

How the values were obtained:
Experiment in all cases: Antimicrobial assay (MIC, agar dilution)
Format in all cases: cell-based
Details in all cases: amoxicillin
[1] = test system: Streptococcus agalactiae T53A4
Procedure: (§1) The antimicrobial activity of crude extract and partitions was evaluated against 36 pathogenic microorganisms (22 Gram-positive bacteria, 13 Gram-negative bacteria, and 1 yeast) according to Mahamodo et al.. The 36 microorganisms were grown overnight at 37°C on sloping Mueller-Hinton (MH) agar medium. Briefly, the bacteria were diluted with Ringer's Cysteine (RC) solution to obtain 10^6 bacteria/ml. […] Inocula of 10^4 colony forming units (CFU) were spotted ultimately with a multipoint inoculator (Steers Replicator).

[2] = test system: Staphylococcus capitis T29A2
Procedure: as §1

[3] = test system: Pseudomonas aeruginosa T41
Procedure: as §1

[4] = test system: Staphylococcus saprophyticus 8237
Procedure: as §1

[5] = test system: Staphylococcus aureus T21
Procedure: as §1

[6] = test system: Staphylococcus aureus 8143
Procedure: as §1

[7] = test system: Staphylococcus capitis T21A3
Procedure: as §1

[8] = test system: Pseudomonas aeruginosa ATCC9027
Procedure: as §1

[9] = test system: Staphylococcus aureus T11
Procedure: as §1

[10] = test system: Staphylococcus aureus T281
Procedure: as §1

[11] = test system: Staphylococcus aureus 8148
Procedure: as §1

[12] = test system: Corynebacterium striatum T46C1
Procedure: as §1

[13] = test system: Staphylococcus lugdunensis T36A1
Procedure: as §1

[14] = test system: Dermabacter hominis T47A7
Procedure: as §1

[15] = test system: Staphylococcus epidermidis T151
Procedure: as §1

[16] = test system: Enterococcus faecalis T47A16
Procedure: as §1

[17] = test system: Staphylococcus aureus T26A4
Procedure: as §1

[18] = test system: Staphylococcus pettenkoferi T282
Procedure: as §1

[19] = test system: Enterococcus faecalis T37B1
Procedure: as §1

[20] = test system: Staphylococcus aureus T2510
Procedure: as §1

Escherichia coli T20A2 = test system: Escherichia coli T20A2
Procedure: as §1

[21] = test system: Staphylococcus aureus T61
Procedure: as §1

[22] = test system: Staphylococcus epidermidis T19A1
Procedure: as §1

[23] = test system: Dermabacter hominis T49B5
Procedure: as §1

[24] = test system: Corynebacterium striatum T40A3
Procedure: as §1

[25] = test system: Staphylococcus aureus 8142
Procedure: as §1

[26] = test system: Staphylococcus aureus T306
Procedure: as §1

[27] = test system: Staphylococcus pettenkoferi T33
Procedure: as §1

[28] = test system: Staphylococcus lugdunensis T47B2
Procedure: as §1

## CC1(C)S[C@@H]2[C@H](NC(=O)[C@H](N)c3ccc(O)cc3)C(=O)N2[C@H]1C(=O)O [Amox, amoxicillin]
[1]
  Reference antibiotics MIC values: R (R: >16)
[2]
  Reference antibiotics MIC values: S (Amox (amoxicillin), S: ≤4)
[3]
  Reference antibiotics MIC values: R (R: >16)
[4]
  Reference antibiotics MIC values: S (Amox (amoxicillin), S: ≤4)
[5]
  Reference antibiotics MIC values: R (R: >16)
[6]
  Reference antibiotics MIC values: S (Amox (amoxicillin), S: ≤4)
[7]
  Reference antibiotics MIC values: S (Amox (amoxicillin), S: ≤4)
[8]
  Reference antibiotics MIC values: R (R: >16)
[9]
  Reference antibiotics MIC values: R (R: >16)
[10]
  Reference antibiotics MIC values: R (R: >16)
[11]
  Reference antibiotics MIC values: R (R: >16)
[12]
  Reference antibiotics MIC values: S (Amox (amoxicillin), S: ≤4)
[13]
  Reference antibiotics MIC values: S (Amox (amoxicillin), S: ≤4)
[14]
  Reference antibiotics MIC values: R (R: >16)
[15]
  Reference antibiotics MIC values: R (R: >16)
[16]
  Reference antibiotics MIC values: R (R: >16)
[17]
  Reference antibiotics MIC values: R (R: >16)
[18]
  Reference antibiotics MIC values: S (Amox (amoxicillin), S: ≤4)
[19]
  Reference antibiotics MIC values: S (Amox (amoxicillin), S: ≤4)
[20]
  Reference antibiotics MIC values: R (R: >16)
Escherichia coli T20A2
  Reference antibiotics MIC values: S (Amox (amoxicillin), S: ≤4)
[21]
  Reference antibiotics MIC values: R (R: >16)
[22]
  Reference antibiotics MIC values: S (Amox (amoxicillin), S: ≤4)
[23]
  Reference antibiotics MIC values: S (Amox (amoxicillin), S: ≤4)
[24]
  Reference antibiotics MIC values: R (R: >16)
[25]
  Reference antibiotics MIC values: R (R: >16)
[26]
  Reference antibiotics MIC values: S (Amox (amoxicillin), S: ≤4)
[27]
  Reference antibiotics MIC values: R (R: >16)
[28]
  Reference antibiotics MIC values: S (Amox (amoxicillin), S: ≤4)
